Laboratory results reported in patent US20250381110A1, “SKIN CARE COMPOSITION AND METHOD OF USING THE SAME” (THE PROCTER & GAMBLE COMPANY, priority 2024, published 2025).

Key:
[1] = test system: primary human dermal fibroblasts (HDFs); experiment: Mitophagy assay, Su9-Halo-GFP reporter, fluorescence microscopy; assay type: cell-based
Protocol: (§1) FIGS. 15A-15C show hydroxycinnamic acids (HCAs) tested in mitophagy assays in primary HDFs. […] 80,000 mixed aged Fibroblasts expressing the Su9-Halo-GFP reporter were treated for 48 h with the indicated HCAs. A change in the reporter excitation occurs because the GFP tag is quenched in the lysosome environment, indicating mitophagy.
Primary human dermal fibroblasts (HDFs) were cultured in DMEM supplemented with 10 percent FBS, 100 units per milliliter penicillin/streptomycin, and 2 millimolar L-glutamine in a humidified atmosphere containing 5 percent carbon dioxide at 37 degrees Celsius. Stable expression of mt-mKeima was achieved through retroviral transduction (Kelly et al.). Cells stably expressing mt-mKeima were seeded in a 35 mm glass bottom dish (MatTek). The live-cell mt-Keima signal was obtained via widefield microscopy using the DMi8 and 2 filtersets to obtain the acidic (561 nm excitation, “red”) and pH-neutral (480 nm, “green”) mKeima signals. Using FIJI/ImageJ, a macro was applied to the mt-mKeima signal to extract mitolysosomes. […] Mitophagy events were determined as the number of puncta per cell. […] Fluorescence images were obtained using an LSM700 confocal microscope (Zeiss). The number of mitolysosomes (GFP-Halo+puncta) per cell was quantified using proprietary plugin in Fiji/ImageJ. […]

[2] = test system: p62-dependent mitophagy; experiment: Luciferase-p62 clearance assay, stated for HDFs; assay type: cell-based, human; conditions: 5 μM; HDFs
Protocol: as §1
To identify p62-dependent materials which increase mitophagy, a Luciferase-p62 Assay was established. This method provides an approach to measure the ability of a material to modulate p62-dependent mitophagy by using an inducible firefly luciferase-p62 (Fluc-p62) reporter cell system. In this assay, p62 levels are driven by doxycycline treatment. After levels increased, expression of Fluc-p62 is turned off by removal of doxycycline, materials are then added and assessed for how they affect clearance of Fluc-p62 protein, which is proportionate to cellular mitophagy rates (Kelly et al.). […]
Test materials including bioactive materials were screened in mouse embryonic fibroblasts (MEFs, Harada et al.) expressing the TET-inducible p62-fluc construct as previously described (Brown et al.). […] Subsequently, cells were treated with test materials for 48 hours in normal growth medium and analysed using ONE-Glo™+Tox Luciferase Reporter and Cell Viability Assay (Promega) by following the manufacturer's protocol.

O=C(O)/C=C/c1ccc(O)cc1 [p-coumaric acid]
mitophagy events by fluorescence microscopy ([1]; 8 μM, 48 h, mixed aged fibroblasts, Su9-Halo-GFP reporter): increases mitophagy events | increase of basal mitophagy levels, dose-response comparison with ferulic acid ([1]; 0.1-8 μM, HDFs): outperforms an O-methylated form (ferulic acid) | p62-dependent mitophagy vs. untreated control cells [2]: significantly increases p62-dependent mitophagy
